From US10689346B2, “Human plasma kallikrein inhibitors” (BioCryst Pharmaceuticals, Inc., priority 2014, dated 2020)

Assays:
human plasma kallikrein = human plasma kallikrein (Homo sapiens (Human), UniProt P03952); experiment: Plasma Kallikrein Activity Assay; type: biochemical
Experimental: Plasma Kallikrein Activity Assay.
The effect of compounds of the invention on human plasma kallikrein activity was determined using the chromogenic substrates (DiaPharma Group, Inc., West Chester, Ohio, USA). In these experiments, 2 nM kallikrein (Enzyme Research Laboratories, South Bend, Ind., USA) was incubated with 80 μM S2302 (H-D-Pro-Phe-Arg-p-nitroaniline) in the absence or presence of increasing concentrations of compounds of the invention in a final volume of 200 μL Tris-HCl buffer (200 mM NaCl; 2.5 mM CaCl2; 50 mM Tris-HCl, pH 7.8).
Data were analyzed using SigmaPlot software (Systat Software, Inc., San Jose, Calif., USA) (Four Parameter Logistic Curve).

[1] = tested on: hereditary angioedema (HAE); settings: cited from earlier work
[2] = tested on: middle cerebral artery occlusion (MCAO); settings: mouse model of MCAO; cited from earlier work
[3] = tested on: LPS- or bacterial-induced sepsis; settings: LPS- or bacterial-induced sepsis in animals; cited from earlier work
sepsis = sepsis patients; cited from earlier work
ischemic stroke = settings: animal model of ischemic stroke; cited from earlier work

human plasma kallikrein, sequence (P03952 whole entry, looked up): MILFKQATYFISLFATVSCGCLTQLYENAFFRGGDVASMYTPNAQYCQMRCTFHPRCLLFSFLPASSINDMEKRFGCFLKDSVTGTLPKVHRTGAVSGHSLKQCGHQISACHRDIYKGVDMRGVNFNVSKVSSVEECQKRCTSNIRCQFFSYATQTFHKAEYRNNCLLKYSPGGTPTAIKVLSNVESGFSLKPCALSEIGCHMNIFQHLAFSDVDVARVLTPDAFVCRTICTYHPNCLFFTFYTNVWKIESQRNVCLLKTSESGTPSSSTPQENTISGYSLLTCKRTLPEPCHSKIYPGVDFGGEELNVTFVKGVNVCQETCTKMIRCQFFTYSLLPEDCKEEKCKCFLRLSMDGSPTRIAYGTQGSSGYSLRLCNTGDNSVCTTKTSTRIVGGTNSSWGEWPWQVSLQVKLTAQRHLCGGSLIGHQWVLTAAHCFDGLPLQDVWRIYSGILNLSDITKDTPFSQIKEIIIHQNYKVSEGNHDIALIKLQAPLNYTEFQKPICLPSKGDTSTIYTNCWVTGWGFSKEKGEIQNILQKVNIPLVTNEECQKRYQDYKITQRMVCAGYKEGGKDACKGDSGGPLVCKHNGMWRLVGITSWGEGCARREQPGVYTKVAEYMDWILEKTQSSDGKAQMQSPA
human plasma kallikrein, sequence (P03952 whole entry partner, looked up): as the sequence (P03952 whole entry, looked up) above

CN(C1CC1)C(c1cccc(N)c1)c1cccc(NC(=O)c2cc(C(F)(F)F)nn2-c2cccc(CN)c2)c1 (centres unmarked) [Compound 102b, 1-(3-(aminomethyl)phenyl)-N-(3-((3-aminophenyl)(cyclopropyl-methylamino)methyl)phenyl)-3-(trifluoromethyl)-1H-pyrazole-5-carboxamide]
Ki (human plasma kallikrein): 0.1 to 50 nM

NC(N)=NCCC[C@@H](N)C(=O)N[C@@H](CCCN=C(N)N)C(=O)N1CCC[C@H]1C(=O)N1C[C@H](O)C[C@H]1C(=O)NCC(=O)N[C@@H](Cc1cccs1)C(=O)N[C@@H](CO)C(=O)N1Cc2ccccc2C[C@@H]1C(=O)N1[C@H](C(=O)N[C@@H](CCCN=C(N)N)C(=O)O)C[C@@H]2CCCC[C@@H]21 [Icatibant]
efficacy in treating HAE ([1]; HAE): effective in treating HAE

C1-inhibitor: "a physiological inhibitor (C1-inhibitor)"; "reduced infarct size in a mouse model of middle cerebral artery occlusion" [Compound C1-inhibitor]
infarct size [2]: reduced infarct size
lesions [3]: reduce lesions
vascular permeability in multiple organs [3]: reduce vascular permeability
clinical improvement (sepsis): Clinical improvement was observed

H-D-Pro-Phe-Arg-chloromethylketone [H-D-Pro-Phe-Arg-chloromethylketone (CMK)]
lesions [3]: reduce lesions

ecallantide [DX-88]
edema ([1]; patients with hereditary angioedema (HAE)): alleviates edema
brain edema (ischemic stroke): reduced
infarct volume (ischemic stroke): reduced
neurological deficits (ischemic stroke): reduced
